Laboratory results taken from ChEMBL document CHEMBL1201862, “PubChem BioAssay data set” (2004).
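Growth conditions: 96-well plates. Treatment: test compound, 48 hours, 5 concentrations. Analysis: linear interpolation between bracketing concentrations; unreached endpoints set to highest concentration. GI50 = concentration required for 50% inhibition of growth.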 The source made the active and inactive calls. Rule as the data show it: active = GI50 up to about 1.1 µM and inactive = higher.

Legend:
Experiment in all cases: growth of human tumour cells (NCI), 48 h
786-0 = tested on: 786-0
A498 = tested on: A498
A549 = tested on: A549
ACHN = tested on: ACHN
CAKI-1 = tested on: CAKI-1
CCRF-CEM = tested on: CCRF-CEM
COLO 205 = tested on: COLO 205
DLD-1 = tested on: DLD-1
DMS-114 = tested on: DMS-114
DMS-273 = tested on: DMS-273
EKVX = tested on: EKVX
HCC 2998 = tested on: HCC 2998
HCT-116 = tested on: HCT-116
HCT-15 = tested on: HCT-15
HL-60 = tested on: HL-60
HOP-18 = tested on: HOP-18
HOP-62 = tested on: HOP-62
HOP-92 = tested on: HOP-92
HT-29 = tested on: HT-29
IGROV-1 = tested on: IGROV-1
K562 = tested on: K562
KM-20L2 = tested on: KM-20L2
KM12 = tested on: KM12
LXFL 529 = tested on: LXFL 529
M14 = tested on: M14
M19-MEL = tested on: M19-MEL
MOLT-4 = tested on: MOLT-4
Malme-3M = tested on: Malme-3M
NCI-H226 = tested on: NCI-H226
NCI-H23 = tested on: NCI-H23
NCI-H460 = tested on: NCI-H460
NCI-H522 = tested on: NCI-H522
OVCAR-3 = tested on: OVCAR-3
OVCAR-4 = tested on: OVCAR-4
OVCAR-5 = tested on: OVCAR-5
OVCAR-8 = tested on: OVCAR-8
RPMI-8226 = tested on: RPMI-8226
RXF 393 = tested on: RXF 393
RXF 631 = tested on: RXF 631
SF-268 = tested on: SF-268
SF-295 = tested on: SF-295
SF-539 = tested on: SF-539
SK-MEL-28 = tested on: SK-MEL-28
SK-MEL-2 = tested on: SK-MEL-2
SK-MEL-5 = tested on: SK-MEL-5
SK-OV-3 = tested on: SK-OV-3
SN12C = tested on: SN12C
SNB-19 = tested on: SNB-19
SNB-75 = tested on: SNB-75
SNB-78 = tested on: SNB-78
SR = tested on: SR
SW-620 = tested on: SW-620
TK-10 = tested on: TK-10
U-251 = tested on: U-251
UACC-257 = tested on: UACC-257
UACC-62 = tested on: UACC-62
UO-31 = tested on: UO-31
XF498 = tested on: XF498
LOX IMVI = tested on: LOX IMVI

For Cc1nc(N)nc(CCC(=O)Nc2cccc(C(F)(F)F)c2)c1-c1ccc(Cl)cc1, the GI50 (786-0) was > 100 µM (inactive), the GI50 (A498) was > 100 µM (inactive) and the GI50 (A549) was > 100 µM (inactive). For the same compound, the GI50 (ACHN) was > 100 µM (inactive), the GI50 (CAKI-1) was > 100 µM (inactive) and the GI50 (CCRF-CEM) was > 100 µM (inactive). For the same compound, the GI50 (COLO 205) was > 100 µM (inactive), the GI50 (DLD-1) was > 100 µM (inactive) and the GI50 (DMS-114) was > 100 µM (inactive). For the same compound, the GI50 (DMS-273) was > 100 µM (inactive), the GI50 (EKVX) was > 100 µM (inactive) and the GI50 (HCC 2998) was > 100 µM (inactive). For the same compound, the GI50 (HCT-116) was > 100 µM (inactive), the GI50 (HCT-15) was greater than 100 µM and the GI50 (HL-60) was > 100 µM (inactive). For the same compound, the GI50 (HOP-18) was > 100 µM (inactive), the GI50 (HOP-62) was > 100 µM (inactive) and the GI50 (HOP-92) was > 100 µM (inactive). The GI50 (HT-29) was > 100 µM (inactive), the GI50 (IGROV-1) was > 100 µM (inactive) and the GI50 (K562) was > 100 µM (inactive). The GI50 (KM-20L2) was > 100 µM (inactive), the GI50 (KM12) was > 100 µM (inactive) and the GI50 (LXFL 529) was > 100 µM (inactive). For the same compound, the GI50 (M14) was > 100 µM (inactive), the GI50 (M19-MEL) was > 100 µM (inactive) and the GI50 (MOLT-4) was > 100 µM (inactive). The GI50 (Malme-3M) was > 100 µM (inactive), the GI50 (NCI-H226) was > 100 µM (inactive) and the GI50 (NCI-H23) was > 100 µM (inactive). The GI50 (NCI-H460) was > 100 µM (inactive), the GI50 (NCI-H522) was > 100 µM (inactive) and the GI50 (OVCAR-3) was > 100 µM (inactive). The GI50 (OVCAR-4) was > 100 µM (inactive), the GI50 (OVCAR-5) was > 100 µM (inactive) and the GI50 (OVCAR-8) was > 100 µM (inactive). For the same compound, the GI50 (RPMI-8226) was > 100 µM (inactive), the GI50 (RXF 393) was > 100 µM (inactive) and the GI50 (RXF 631) was > 100 µM (inactive). The GI50 (SF-268) was > 100 µM (inactive), the GI50 (SF-295) was > 100 µM (inactive) and the GI50 (SF-539) was > 100 µM (inactive). For the same compound, the GI50 (SK-MEL-28) was > 100 µM (inactive), the GI50 (SK-MEL-2) was > 100 µM (inactive) and the GI50 (SK-MEL-5) was > 100 µM (inactive). For the same compound, the GI50 (SK-OV-3) was > 100 µM (inactive), the GI50 (SN12C) was > 100 µM (inactive) and the GI50 (SNB-19) was > 100 µM (inactive). The GI50 (SNB-75) was > 100 µM (inactive), the GI50 (SNB-78) was > 100 µM (inactive) and the GI50 (SR) was 21.6 µM (inactive). The GI50 (SW-620) was > 100 µM (inactive), the GI50 (TK-10) was > 100 µM (inactive) and the GI50 (U-251) was > 100 µM (inactive). For the same compound, the GI50 (UACC-257) was > 100 µM (inactive), the GI50 (UACC-62) was > 100 µM (inactive) and the GI50 (UO-31) was > 100 µM (inactive). The GI50 (XF498) was > 100 µM (inactive).
In the case of COc1cc2nc(Sc3c([N+](=O)[O-])ncn3C)[nH]c2cc1OC, the GI50 (786-0) is reported as 71 µM (inactive), the GI50 (A498) is reported as 78 µM (inactive) and the GI50 (A549) is reported as 34.8 µM (inactive). For the same compound, the GI50 (ACHN) was 54.3 µM (inactive), the GI50 (CAKI-1) was 4.47 µM (inactive) and the GI50 (COLO 205) was 13.6 µM (inactive). For the same compound, the GI50 (DLD-1) was 14 µM (inactive), the GI50 (DMS-114) was 11.6 µM (inactive) and the GI50 (DMS-273) was 1.65 µM (inactive). The GI50 (EKVX) was 21.2 µM (inactive), the GI50 (HCC 2998) was 17.9 µM (inactive) and the GI50 (HCT-116) was 27.4 µM (inactive). The GI50 (HCT-15) was 19.4 µM, the GI50 (HOP-18) was > 100 µM (inactive) and the GI50 (HOP-62) was > 100 µM (inactive). The GI50 (HOP-92) was 16.5 µM (inactive), the GI50 (HT-29) was 41.7 µM (inactive) and the GI50 (IGROV-1) was 14.2 µM (inactive). The GI50 (KM-20L2) was 33.6 µM (inactive), the GI50 (KM12) was 46.7 µM (inactive) and the GI50 (LOX IMVI) was 41.6 µM (inactive). The GI50 (LXFL 529) was 12.4 µM (inactive), the GI50 (M14) was 87.5 µM (inactive) and the GI50 (M19-MEL) was 33.1 µM (inactive). The GI50 (MOLT-4) was 12.5 µM (inactive), the GI50 (Malme-3M) was 56.2 µM (inactive) and the GI50 (NCI-H226) was 28.3 µM (inactive). The GI50 (NCI-H23) was 26.1 µM (inactive), the GI50 (NCI-H460) was 49.9 µM (inactive) and the GI50 (OVCAR-3) was 46.8 µM (inactive). For the same compound, the GI50 (OVCAR-4) was 38.5 µM (inactive), the GI50 (OVCAR-5) was 98.6 µM (inactive) and the GI50 (OVCAR-8) was 15.1 µM (inactive). The GI50 (RPMI-8226) was 22.3 µM (inactive), the GI50 (RXF 393) was 16.1 µM (inactive) and the GI50 (RXF 631) was 1.74 µM (inactive). The GI50 (SF-268) was 19.2 µM (inactive), the GI50 (SF-295) was > 100 µM (inactive) and the GI50 (SF-539) was 18.6 µM (inactive). For the same compound, the GI50 (SK-MEL-28) was 20.5 µM (inactive), the GI50 (SK-MEL-5) was 18.9 µM (inactive) and the GI50 (SK-OV-3) was 79.4 µM (inactive). For the same compound, the GI50 (SN12C) was 16.3 µM (inactive), the GI50 (SNB-19) was 26.1 µM (inactive) and the GI50 (SNB-75) was 28.4 µM (inactive). The GI50 (SNB-78) was 34.8 µM (inactive), the GI50 (SR) was 13.3 µM (inactive) and the GI50 (SW-620) was 26 µM (inactive). The GI50 (TK-10) was 26.9 µM (inactive), the GI50 (U-251) was 31.3 µM (inactive) and the GI50 (UACC-257) was 28.6 µM (inactive). The GI50 (UACC-62) was 24.3 µM (inactive), the GI50 (UO-31) was 46 µM (inactive) and the GI50 (XF498) was 11 µM (inactive).
